Measured values taken from patent publication US9682126B2, “Postprandial gastrokinetic agent” (ZERIA PHARMACEUTICAL CO., LTD., priority 2013, dated 2017).

Experiments:
Suncus murinus [1] = test: Postprandial motility by co-administration of ghrelin and motilin, ΔMI (Example 3); format: in vivo
Protocol: Each of Suncus motilin (Scrum Inc., Tokyo, Japan) and human ghrelin (Asubio Pharma Co., Ltd., Hyogo, Japan) was dissolved in PBS containing 0.1% bovine serum albumin.
Suncus murinus (male, outbred KAT strain, 7 to 39 weeks old, 56 to 91 g) was used for the experiment. The Each animal was bred in a plastic cage provided with an empty can as a nest box under the following conditions: temperature at 23±2° C., illumination between 8:00 and 20:00, and free intake of commercial trout feed (SP, Nippon Formula Feed Mfg Co., Ltd., Yokohama, Japan).
After 3 hours of fasting, Suncus murinus was anesthetized by an intraperitoneal injection of pentobarbital sodium (50 mg/kg). Through a midline incision, the stomach was exposed outside the body, and a force transducer was fixed via suture in the circular muscle direction of the body of stomach. The wire extending from the force transducer was inserted through the abdominal wall, passed under the skin, and exposed at the back of the neck.
An intravenous catheter was inserted in the right jugular, and extracorporeally fixed to the back. The catheter was filled with heparinized saline (100 units/mL) to prevent clotting.
Each of the operated Suncus murinus was allowed to recover for several days.
Drug administration and measurement of gastric motility were performed in the conscious, free-moving state without anesthesia.
2 g of feed was given to each Suncus murinus fastened (for 8 to 10 hours) for 10 minutes. After the intake of feed for 10 minutes, ghrelin (50, 1,000, or 3,000 ng/kg), motilin (300, 500, 1,000, or 3,000 ng/kg), or a mixed solution of ghrelin (15 or 50 ng/kg) and motilin (100, 200, or 300 ng/kg) was intravenously administered through a jugular vein catheter rapidly.
Amplified analog signals were converted into digital signals by an analog-to-digital converter (ADC-20, Pico Technology Ltd, St Neots, UK), and the digital signals were recorded on a computer.
Phase III contractions of MMC in conscious Suncus murinus were defined on the basis of those in dogs and humans (that is, clustered contractions with an amplitude of 8 g or more that lasts for 5 minutes or more).
Gastric motility was quantitated using a motility index (ΔMI). A motility index (ΔMI) based on a drug was calculated using the following equation. ΔMI (%)=(A−C)/B×100 A: AUC of contractions for 10 minutes during which the drug was administered B: AUC of 10-minute spontaneous phase III contractions appeared before administration of the drug C: (AUC of contractions appeared for 5 minutes between 5 and 10 minutes after the intake of feed)×2 (2) Results (FIG. 9) A. Action of Ghrelin Alone

Suncus murinus [2] = test: Postprandial gastric motility, force transducer on stomach, motility index MI (Example 1); format: in vivo; conditions: motilin 300 ng/kg iv after 10-min feed intake
Protocol: Effects of administration of each of ghrelin and motilin and co-administration of ghrelin and motilin on postprandial gastric motility in Suncus murinus were studied. Each of Suncus motilin (Scrum Inc., Tokyo, Japan) and human ghrelin (Asubio Pharma Co., Ltd., Hyogo, Japan) was dissolved in phosphate buffered saline (PBS) containing 0.1% bovine serum albumin. Suncus murinus (male, outbred KAT strain, 8 to 9 weeks old, 73 to 90 g) was used for the experiment. Each animal was bred in a plastic cage provided with an empty can as a nest box under the following conditions: temperature at 23±2° C., illumination between 8:00 and 20:00, and free intake of commercial trout feed (SP, Nippon Formula Feed Mfg Co., Ltd., Yokohama, Japan). After 3 hours of fasting, Suncus murinus was anesthetized by an intraperitoneal injection of pentobarbital sodium (50 mg/kg). Through a midline incision, the stomach was exposed outside the body, and a force transducer was fixed via suture in the circular muscle direction of the body of stomach. […] Amplified analog signals were converted into digital signals by an analog-to-digital converter (ADC-20, Pico Technology Ltd, St Neots, UK), and the digital signals were recorded on a computer. […] Gastric motility was quantitated using a motility index (MI). A motility index (MI) based on a drug was calculated using the following equation. […]

[3] = motilin 300 ng/kg iv after feed intake
[4] = motilin 500 ng/kg iv after feed intake
[5] = motilin 1,000 ng/kg iv after feed intake
[6] = motilin 3,000 ng/kg iv after feed intake

CC[C@H](C)[C@H](NC(=O)[C@@H]1CCCN1C(=O)[C@@H](NC(=O)[C@@H](N)Cc1ccccc1)C(C)C)C(=O)N[C@@H](Cc1ccccc1)C(=O)N[C@H](C(=O)N[C@@H](Cc1ccc(O)cc1)C(=O)NCC(=O)N[C@@H](CCC(=O)O)C(=O)N[C@@H](CC(C)C)C(=O)N[C@@H](CCC(N)=O)C(=O)N[C@@H](CCCNC(=N)N)C(=O)N[C@@H](CCSC)C(=O)N[C@@H](CCC(N)=O)C(=O)N[C@@H](CCC(=O)O)C(=O)N[C@@H](CCCCN)C(=O)N[C@@H](CCC(=O)O)C(=O)N[C@@H](CCCNC(=N)N)C(=O)N[C@@H](CC(N)=O)C(=O)N[C@@H](CCCCN)C(=O)NCC(=O)N[C@@H](CCC(N)=O)C(=O)O)[C@@H](C)O [motilin]
Motility Index (ΔMI) (Suncus murinus [1]; [3]): About 4.9% | contractions of the body of the stomach (Suncus murinus [1]; [3]): did not induce contractions of the body of the stomach | Motility Index (ΔMI) (Suncus murinus [1]; [4]): About 6.8% | contractions of the body of the stomach (Suncus murinus [1]; [4]): did not induce contractions of the body of the stomach | Motility Index (ΔMI) (Suncus murinus [1]; [5]): About 49.5% | phase III-like contractions (Suncus murinus [1]; [5]): induced phase III-like contractions | Motility Index (ΔMI) (Suncus murinus [1]; [6]): about 48.3% | phase III-like contractions (Suncus murinus [1]; [6]): induced phase III-like contractions | contractions of the body of the stomach (Suncus murinus [2]): did not induce contractions of the body of the stomach
